Results as given in US10653688B2, “6-(6-membered heteroaryl and aryl)isoquinolin-3-yl carboxamides and preparation and use thereof” (Samumed, LLC, priority 2017, dated 2020).

Columns and labels:
[1] = system: Cyclin D1 phosphorylation at Threonine 286 (pCcnD1) over total Cyclin D1 in SH-SY5Y cells; assay: phosphoCcnD1 to total CcnD1 ratio (PTT) cell-based assay, western blot; details: Homo sapiens, 48 hours
Procedure: Representative compounds were screened using the cell-based assay procedure for the ratio of signal of Cyclin D1 phosphorylation at Threonine 286 (pCcnD1) over the signal of total Cyclin D1 (CcnD1) (abbreviated: phosphoCcnD1 to total CcnD1 ratio, or PTT) as described below.
SH-SY5Y cells (human neuroblastoma, Sigma, Saint-Louis, Mo.) were cultured in 1:1 DMEM/F-12 medium supplemented with 15% FBS, 1% non-essential amino acid, and 1% penicillin/streptomycin.
SH-SY5Y cells were seeded at 1.0×10^5 cells in 1 mL per well in a 24-well plate. After cell adherence was confirmed, DMSO-resuspended Samumed compounds were dispensed to eight wells as a serial dilution from 10 μM to 4.6 nM final concentration in medium, or at 1.1 μM to 4.6 nM with particularly potent compounds. Cells were exposed to Samumed compounds for 48 hours in a 37° C. incubator.
Wells of compound-treated cells were visually checked for cell death before being washed with 500 μL per well of 1×DPBS supplemented with phosphatase inhibitor diluted to 1×. Cells were then lysed with 90 μL 1×RIPA buffer supplemented with phosphatase and protease inhibitors (each diluted to a final 1×). After scraping, 60 μL of cell lysate from each sample was used to dilute 4×LDS (ThermoFisher, NP0007) and 20×XT reducing agent (Bio-Rad, 1610792), each diluted to 1× final. All samples were then denatured via boiling at 95° C. Denatured cell sample lysates were directly tested for pCcnD1 and total CcnD1 signal by Western blot techniques and analysis. Specifically, denatured lysates were directly transferred to NuPAGE™ 4-12% Bis-Tris Midi Protein Gels, 26-well gels (ThermoFisher, WG1403BOX). Gels were transferred to […] nitrocellulose membranes via iBlot™ Transfer Stack, nitrocellulose, regular size (ThermoFisher, IB301031). Membranes were blocked with 1×TBS, 5% milk (Bio-Rad, 1706404XTU) before being probed for overnight with either anti-pCcnD1 primary antibody (Cell Signaling Technology, 2978S) or anti-total CcnD1 primary antibody (Cell Signaling Technology, 3300S) diluted 1:500 in 1×TBS-0.05% Tween-20, 3% milk. After overnight incubation in primary antibodies, membranes were washed profusely with 1×TBS-0.05% Tween-20 and probed for 1 hour with secondary anti-rabbit/HRP conjugate (Cell Signaling Technology, 7074S) diluted 1:1000 in 1×TBS-0.05% Tween-20, 3% milk. After incubation in secondary antibody, membranes were washed with 1×TBS-0.05% Tween-20.
Probed and washed membranes were developed for pCcnD1 or total CcnD1 signal with SuperSignal™ West Femto Maximum Sensitivity Substrate (ThermoFisher, 34096) using the ChemoDoc-It^2 (UVP) and related GelDocIt imaging software. Blots were then stripped, blocked, stained with anti-β-actin/HRP conjugate antibody (Cell Signaling Technology, 5125S), developed, and imaged for housekeeping β-actin protein control as previously described. Densitometry was measured with ImageJ (NIH) and signal was used to plot, draw the curves fitting, and determine the EC50 values in GraphPad Prism for tested Samumed compounds.

[2] = system: secreted cytokines TNFα, IL-6 and KC-GRO in BV-2 cells (mouse microglial cells); assay: Secreted cytokines in lipopolysaccharide-stimulated mouse glial cell line; format: cell-based; details: LPS 250 ng/mL 5 hours, table does not say which cytokine
In short: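 BV-2 cells seeded at 35,000/well were pretreated overnight with compound (10 μM to 4.6 nM final), then stimulated 5 h with 250 ng/mL E. coli O111:B4 LPS. Supernatant TNFα, IL-6 and KC-GRO were quantified by electrochemiluminescence against standard curves (pg/mL) to fit EC50. Cytotoxicity was checked by CellTiter-Glo ATP read-out.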

[3] = system: pT212Tau in Dyrk1a- and MAPT-overexpressing HEK293T cells; assay: Tau phosphorylation at Threonine 212 (pT212Tau) sandwich ELISA in double transfected cells; details: Homo sapiens, HEK-293T, read-out: Thr212 EC50 (μM)
Procedure: HEK293T cells (transfectable human embryonic kidney cells) were cultured in DMEM medium supplemented with 10% FBS and 1% penicillin/streptomycin.
HEK293T cells were transiently transfected to overexpress Dyrk1a and microtubule-associated protein Tau (MAPT) genes. Specifically, Dyrk1a and MAPT expression vectors were obtained from OriGene (10 μg of each, catalog numbers SC314641 and RC216166, respectively). […] HEK293T cells were seeded at 1.0×10^7 cells in 10 mL per T-75 flask. […] One T-75 flask was designated as a no-vector negative control for pT212Tau signal.
After 4-6 hours of incubation in transfection reagents, transiently double transfected HEK293T cells were dissociated by treatment with trypsin EDTA and seeded at 1.0×10^5 cells in 100 μL per well in 96-well plates. No-vector negative controls were seeded in separate 96-well plates to avoid the risk of the negative control cells picking up the overexpression during incubation.
96-well flat-bottom plates were coated with 100 μL per well anti-HT7 capture antibody (ThermoFisher, MN1000) diluted 1:300 in 1×PBS at 4° C. overnight, with shaking at 500 rpm.
Cells were then lysed with 100 μL 1×RIPA buffer supplemented with phosphatase and protease inhibitors (each diluted to a final 1×). […] V-bottom plates were centrifuged at 4000 rpm, 4° C., for 15 minutes, and 100 μL of lysate supernatant from each well was directly tested for pT212Tau signal by sandwich ELISA.

[4] = system: LL29 cells (primary human fibroblasts derived from IPF patients), α-smooth muscle actin; assay: Inhibition of fibrotic process: TGF-β1-treated primary human fibroblasts, αSMA staining; format: cell-based; details: Homo sapiens, Fibroblast; for EC50: 96 h, TGF-β1 20 ng/mL, 4 days, % cells positive for αSMA; for inhibition at 10 µM: read-out: percent inhibition at 10 μM (given for EC50 >10 μM), TGF-β1, αSMA, 10 μM;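 on all read-outs here: controls were TGF-β1-stimulated wells with DMSO vehicle as the positive reference and cells given DMSO alone as the negative reference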
[5] = system: SW480 colon carcinoma cells; assay: Cell viability assay (CellTiter-Glo); format: cell-based, human; details: Homo sapiens; for EC50: 96 h, four days, CellTiter-Glo; for inhibition at 10 µM: read-out: percent inhibition at 10 μM (given for EC50 >10 μM), 10 μM

EC50 [1] [nM]	EC50 [2] [nM]	EC50 [5] [nM]	SMILES	EC50 [3] [µM]	EC50 [4] [nM]	inhibition at 10 µM [5] [%]	inhibition at 10 µM [4] [%]
276	33	1600	O=C(Nc1cc2cc(-c3cccnc3)ccc2cn1)C1CC1 [Compound 6, N-(6-(Pyridin-3-yl)isoquinolin-3-yl)cyclopropanecarboxamide]	0.01	197	–	–
36	36	3140	CN1CCC(C(=O)Nc2cc3cc(-c4cccnc4)ccc3cn2)CC1 [Compound 8, 1-Methyl-N-(6-(pyridin-3-yl)isoquinolin-3-yl)piperidine-4-carboxamide]	0.019	398	–	–
205	136	> 10000	Cc1nccn1CC(=O)Nc1cc2cc(-c3cccnc3)ccc2cn1 [Compound 14, 2-(2-Methyl-1H-imidazol-1-yl)-N-(6-(pyridin-3-yl)isoquinolin-3-yl) acetamide]	0.043	2240	47.6	–
127	21	6440	O=C(Cn1ccnc1)Nc1cc2cc(-c3cccnc3)ccc2cn1 [Compound 15, 2-(1H-Imidazol-1-yl)-N-(6-(pyridin-3-yl)isoquinolin-3-yl)acetamide]	0.2	1520	–	–
123	1330	> 10000	O=C(CN1CCCC1)Nc1cc2cc(-c3cncc(F)c3)ccc2cn1 [Compound 18, N-(6-(5-Fluoropyridin-3-yl)isoquinolin-3-yl)-2-(pyrrolidin-1-yl)acetamide]	0.053	5970	22.2	–
140	124	> 10000	CN1CCC(C(=O)Nc2cc3cc(-c4cncc(F)c4)ccc3cn2)CC1 [Compound 19, N-(6-(5-Fluoropyridin-3-yl)isoquinolin-3-yl)-1-methylpiperidine-4-carboxamide]	0.205	1210	42.8	–
355	–	> 10000	CN1CCN(CC(=O)Nc2cc3cc(-c4cncc(F)c4)ccc3cn2)CC1 [Compound 20, N-(6-(5-Fluoropyridin-3-yl)isoquinolin-3-yl)-2-(4-methylpiperazin-1-yl) acetamide]	0.252	3140	37.2	–
80	628	> 10000	O=C(CCN1CCOCC1)Nc1cc2cc(-c3cncc(F)c3)ccc2cn1 [Compound 23, N-(6-(5-Fluoropyridin-3-yl)isoquinolin-3-yl)-3-morpholinopropanamide]	> 10	1630	24.8	–
1	640	> 10000	CN1CCC(C(=O)Nc2cc3cc(-c4cncc(C#N)c4)ccc3cn2)CC1 [Compound 32, N-(6-(5-Cyanopyridin-3-yl)isoquinolin-3-yl)-1-methylpiperidine-4-carboxamide]	0.161	8400	8.8	–
9100	62	1820	COc1cncc(-c2ccc3cnc(NC(=O)C4CCN(C)CC4)cc3c2)c1 [Compound 33, N-(6-(5-Methoxypyridin-3-yl)isoquinolin-3-yl)-1-methylpiperidine-4-carboxamide]	0.033	481	–	–
4	60	813	O=C(Nc1cc2cc(-c3cncc(NC4CCNCC4)n3)ccc2cn1)C1CCCCC1 [Compound 44, N-(6-(6-(piperidin-4-ylamino)pyrazin-2-yl)isoquinolin-3-yl) cyclohexanecarboxamide]	< 0.003	401	–	–
974	171	4060	O=C(Nc1cc2cc(-c3cncc(CN4CCCC4)c3)ccc2cn1)C1CC1 [Compound 51, N-(6-(5-(Pyrrolidin-1-ylmethyl)pyridin-3-yl)isoquinolin-3-yl) cyclopropanecarboxamide]	0.047	4230	–	–
30	55	2350	O=C(Nc1cc2cc(-c3cncc(CN4CCC(O)CC4)c3)ccc2cn1)C1CC1 [Compound 53, N-(6-(5-((4-Hydroxypiperidin-1-yl)methyl)pyridin-3-yl)isoquinolin-3-yl) cyclopropanecarboxamide]	0.003	3070	–	–
45	177	3300	CN1CCN(Cc2cncc(-c3ccc4cnc(NC(=O)C5CC5)cc4c3)c2)CC1 [Compound 56, N-(6-(5-((4-Methylpiperazin-1-yl)methyl)pyridin-3-yl)isoquinolin-3-yl) cyclopropanecarboxamide]	0.045	5130	–	–
–	750	> 10000	O=C(Nc1cc2cc(-c3cnccn3)ccc2cn1)[C@H]1C[C@H](N2CCOCC2)C1 [Compound 69, trans-3-Morpholino-N-(6-(pyrazin-2-yl)isoquinolin-3-yl)cyclobutane-1-carboxamide]	0.227	6730	19.5	–
–	629	> 10000	O=C(Nc1cc2cc(-c3cnccn3)ccc2cn1)[C@H]1CC[C@H](N2CCOCC2)CC1 [Compound 71, trans-4-Morpholino-N-(6-(pyrazin-2-yl)isoquinolin-3-yl)cyclohexane-1-carboxamide]	0.019	> 10000	14.6	43.4
–	1310	> 10000	O=C(Nc1cc2cc(-c3cnccn3)ccc2cn1)[C@H]1CC[C@H](CN2CC(F)C2)CC1 [Compound 72, trans-4-((3-Fluoroazetidin-1-yl)methyl)-N-(6-(pyrazin-2-yl)isoquinolin-3-yl)cyclohexane-1-carboxamide]	0.628	1830	35.6	–
–	694	> 10000	CN1CCN(C[C@H]2CC[C@H](C(=O)Nc3cc4cc(-c5cnccn5)ccc4cn3)CC2)CC1 [Compound 73, trans-4-((4-Methylpiperazin-1-yl)methyl)-N-(6-(pyrazin-2-yl)isoquinolin-3-yl)cyclohexane-1-carboxamide]	0.024	> 10000	50.7	43.1
–	280	> 10000	O=C(Nc1cc2cc(-c3cnccn3)ccc2cn1)C1CCN(CCF)CC1 [Compound 77, 1-(2-Fluoroethyl)-N-(6-(pyrazin-2-yl)isoquinolin-3-yl)piperidine-4-carboxamide]	0.062	4760	33.8	–
–	1070	364	CC(C)Nc1cncc(-c2ccc3cnc(NC(=O)C4CCN(C)CC4)cc3c2)n1 [Compound 88, N-(6-(6-(Isopropylamino)pyrazin-2-yl)isoquinolin-3-yl)-1-methylpiperidine-4-carboxamide]	< 0.003	> 10000	–	31.9
